Read-outs that look alike come from different tables or passages of the source.
Key:
[1] = system: M. tuberculosis H37Rv-GFP; assay: microbe, parasite or virus in culture; assay type: cell-based, Mycobacterium tuberculosis; conditions: Mycobacterium tuberculosis, H37RV, Macrophage
Raw264.7 cells [2] = assay: Cell number (CellNb) from image analysis of the phenotypic cell-based assay; conditions: primary screen, 20 μM
Raw264.7 cells [3] = conditions: mouse, 5 days, 20 μM
[4] = confirmation, 20 uM, read-out: QIM Confirm % Inhibition 20 uM
[5] = primary screen, 20 μM, read-out: Primary QIM % Inhibition

| SMILES | inhibition at 20 µM [1, 4] | inhibition at 20 µM [1, 5] | Primary QIM CellNb (Raw264.7 cells [2]) | Primary QIM CellNb (Raw264.7 cells [3]) |
| --- | --- | --- | --- | --- |
| Oc1ccccc1/N=C/c1cc(Cl)cc(Cl)c1O [IPK 000 045 01] | 30.6% | -9.3% | 145.0 | 24.3 |
| NNC(=O)c1ccc(COc2ccccc2Cl)o1 [IPK 000 123 03] | 72.1% | 78.3% | 540.8 | 12.0 |
| O=C(N/N=C/c1ccc(O)c([N+](=O)[O-])c1)c1ccncc1 [IPK 000 043 11] | 104% | 104% | 366.0 | 99.5 |
| O=C(N/N=C/c1ccc([N+](=O)[O-])cc1)c1ccncc1 [IPK 000 041 48] | 88.4% | 84.5% | 315.3 | 97.5 |
| O=C(N/N=C/c1ccc(F)cc1)c1ccncc1 [IPK 000 041 52] | 93.7% | 75.6% | 262.5 | 103.2 |
| NNC(=O)c1ccc(COc2ccc3c(c2)CCC3)o1 [IPK 000 123 30] | 64.1% | 77.2% | 296.8 | 72.5 |
| O=C(Nc1ccc(Cl)c(Cl)c1)c1ccc([N+](=O)[O-])cc1Cl [IPK 000 048 99] | 73.5% | 76.8% | 217.8 | 40.3 |
| O=C(N/N=C/c1cc2c(cc1[N+](=O)[O-])OCO2)c1ccncc1 [IPK 000 058 30] | 70.8% | 95.5% | 315.8 | 98.3 |
| O=C(Nc1cc(Cl)cc(Cl)c1)c1ccc([N+](=O)[O-])cc1Cl [IPK 000 049 03] | 48.6% | 62.6% | 205.3 | 56.0 |
| Cc1ccccc1/C=N/NC(=O)c1ccncc1 [IPK 000 043 29] | 100% | 111% | 415.5 | 105.2 |
| Cc1ccc(NC(=O)c2c(NC(=O)C(F)(F)F)sc3c2CCC3)c(C)c1 [IPK 000 077 22] | 46.6% | -33% | 84.5 | 33.3 |
| CCOc1ccc(NC(=S)Nc2ccccc2)cc1 [IPK 000 108 78] | 68.8% | 78.8% | 200.3 | 38.3 |
| O=C(N/N=C/c1cccc(Cl)c1Cl)c1ccncc1 [IPK 000 043 10] | 98.3% | 14.3% | 176.8 | 92.7 |
| Cn1cc(/C=N/NC(=O)c2cccc(F)c2)c2ccccc21 [IPK 000 104 11] | 83.3% | 89.7% | 203.8 | 19.9 |
| N=C1S/C(=C/c2ccc([N+](=O)[O-])cc2)C(=O)N1c1nccs1 [IPK 000 094 38] | 6% | 46% | 126.3 | 13.6 |
| COc1ccc(OC)c(/C=N/NC(=O)c2ccncc2)c1 [IPK 000 042 93] | 106% | 109% | 321.8 | 105.1 |
| Oc1c(Cl)cc(Cl)cc1C(=S)Nc1ccccc1 [IPK 000 042 78] | 91.7% | 73.9% | 194.5 | 33.0 |
| CC1=C(Nc2ccc(S(=O)(=O)Nc3nc(C)cc(C)n3)cc2)Sc2ccccc2N1 [IPK 000 112 67] | 32.6% | -36.5% | 250.8 | 27.6 |
| CCOc1ccc(/C=N/NC(=O)c2ccncc2)cc1 [IPK 000 041 49] | 94.5% | 83.8% | 336.5 | 102.3 |
| CC(/C=N/NC(=O)c1ccncc1)c1ccccc1 (centres unmarked) [IPK 000 105 20] | 96.4% | 97.1% | 316.5 | 103.8 |
| CCOc1cc(/C=N/NC(=O)c2ccncc2)ccc1O [IPK 000 042 99] | 106% | 103% | 364.0 | 104.1 |
| CCCCc1ccc(C(=O)Nc2ccc(Br)cn2)cc1 [IPK 000 105 47] | 50.7% | 60.1% | 125.8 | 68.1 |
| CC(=O)Oc1ccccc1C(=S)Nc1ccccc1 [IPK 000 042 77] | 48.9% | 105% | 367.0 | 7.7 |

Reference: patent US8785452B2, “Anti-infective compounds” (priority 2008, dated 2014)
